# Patent US6750228B1, “Aromatic sulfone hydroxamic acid metalloprotease inhibitor” (priority 1997, dated 2004)
# Counter-ions that a name gives are not always drawn. Like-named read-outs stand apart in the source and are kept apart here.
# Assays:
# Assay in all cases: biochemical
# MMP-1 = molecular target: T1, MMP-1 (Homo sapiens, UniProt P03956); details: read-out: MMP-1 IC50
# T1 construct: made in house; host or cells: transfected HT-1080 cells (provided by Dr. Harold Welgus, Washington University)
# T1 sequence (P03956 100-469): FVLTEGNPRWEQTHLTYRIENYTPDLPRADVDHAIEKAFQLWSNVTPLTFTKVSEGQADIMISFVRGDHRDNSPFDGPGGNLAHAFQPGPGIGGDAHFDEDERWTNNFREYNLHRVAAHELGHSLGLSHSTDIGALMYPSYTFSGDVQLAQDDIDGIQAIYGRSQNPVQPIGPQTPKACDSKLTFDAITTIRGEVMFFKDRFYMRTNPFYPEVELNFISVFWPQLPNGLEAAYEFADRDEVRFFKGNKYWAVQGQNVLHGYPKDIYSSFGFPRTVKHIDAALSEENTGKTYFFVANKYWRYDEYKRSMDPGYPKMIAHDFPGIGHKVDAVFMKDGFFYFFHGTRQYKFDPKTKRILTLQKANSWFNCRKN
# Method: (§1) The compounds prepared in the manner described in the Examples above were assayed for activity by an in vitro assay. […] Briefly, 4-aminophenylmercuric acetate (APMA) or trypsin-activated MMPs were incubated with various concentrations of the inhibitor compound at room temperature for 5 minutes.
# (§2) The expressed enzyme was purified first over a heparin agarose column and then over a chelating zinc chloride column. The proenzyme was activated by APMA for use in the assay.
# (§3) MMP-1 expressed in transfected HT-1080 cells was provided by Dr. Harold Welgus of Washington University, St. Louis, Mo. The enzyme was also activated using APMA and was then purified over a hydroxamic acid column. Dr. Welgus also provided transfected HT-1080 cells that expressed MMP-9. Transfected cells that expressed MMP-2 were provided by Dr. Gregory Goldberg, also of Washington University. Studies with MMP-7 were carried out at pH 7.5 in the presence of 0.02% 2-mercaptoethanol using conditions otherwise similar to those used for the other enzymes. The enzyme was obtaind from a hMMP-7-expressing E. coli clone that was a gift of Dr. Steven Shapiro of Washington University, St. Louis, Mo. Further specifics for preparation and use of these enzymes can be found in the scientific literature describing these enzymes. See, for example, Enzyme Nomenclature, Academic Press, San Diego, Calif. […] The enzyme substrate is a methoxycoumarin-containing polypeptide having the following sequence:
# (§4) MCA-ProLeuGlyLeuDpaAlaArgNH2, wherein MCA is methoxycoumarin and Dpa is 3-(2,4-dinitrophenyl)-L-2,3-diaminopropionyl alanine.
# (§5) The buffer used for assays contained 100 mM Tris-HCl, 100 mM NaCl, 10 mM CaCl2 and 0.05 percent polyethyleneglycol (23) lauryl ether at a pH value of 7.5. Assays were carried out at room temperature, and dimethyl sulfoxide (DMSO) at a final concentration of 1 percent was used to dissolve inhibitor compound.
# (§6) The assayed inhibitor compound in DMSO/buffer solution was compared to an equal amount of DMSO/buffer with no inhibitor as control using Microfluor White Plates (Dynatech). The inhibitor or control solution was maintained in the plate for 10 minutes and the substrate was added to provide a final concentration of 4 μM.
# (§7) Inhibition was measured as a reduction in fluorescent intensity as a function of inhibitor concentration, using a Perkin Elmer L550 plate reader. The IC50 values were calculated from those values. The results are set forth in the Inhibition Table A, below, reported in terms of IC50 to three significant figures, where appropriate.
# MMP-2 = molecular target: T2, MMP-2 (Homo sapiens, UniProt P08253)
# T2 construct: made in house; provided by Dr. Gregory Goldberg, Washington University
# T2 sequence (P08253 110-660): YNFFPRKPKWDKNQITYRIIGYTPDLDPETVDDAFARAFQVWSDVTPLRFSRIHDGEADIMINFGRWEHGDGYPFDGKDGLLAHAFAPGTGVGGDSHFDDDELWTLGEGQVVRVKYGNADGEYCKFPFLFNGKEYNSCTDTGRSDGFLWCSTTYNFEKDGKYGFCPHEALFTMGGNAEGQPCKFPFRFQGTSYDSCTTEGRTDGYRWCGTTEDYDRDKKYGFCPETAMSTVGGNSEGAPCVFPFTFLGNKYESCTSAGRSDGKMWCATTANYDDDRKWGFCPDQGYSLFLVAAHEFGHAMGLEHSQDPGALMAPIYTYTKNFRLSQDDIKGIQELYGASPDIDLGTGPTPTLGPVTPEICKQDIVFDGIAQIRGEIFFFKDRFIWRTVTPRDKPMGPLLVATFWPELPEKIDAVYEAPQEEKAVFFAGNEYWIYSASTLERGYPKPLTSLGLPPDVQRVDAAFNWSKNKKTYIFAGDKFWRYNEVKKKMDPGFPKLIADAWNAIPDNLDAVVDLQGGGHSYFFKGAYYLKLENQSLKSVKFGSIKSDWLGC
# Method: as §1, §2, §3, §4, §5, §6, §7
# MMP-13 = molecular target: T3, MMP-13 (Homo sapiens, UniProt P45452); details: read-out: MMP-13 IC50
# T3 construct: made in house; host or cells: baculovirus / insect cells
# Method: as §1, §2, §3, §4, §5, §6, §7
# [1] = recombinant human MMP-1, MCA peptide substrate 4 μM, pH 7.5, room temperature
# [2] = recombinant human MMP-2, MCA peptide substrate 4 μM, pH 7.5, room temperature, read-out: MMP-2 IC50
# [3] = recombinant human MMP-13, MCA peptide substrate 4 μM, pH 7.5, room temperature
Compound,IC50 (MMP-1; [1]) [µM],IC50 (MMP-13; [3]) [nM],also measured
CN(CC1CC1)C(=O)C1CCN(c2ccc(S(=O)(=O)C3(C(=O)NO)CCSCC3)cc2)CC1 [Example 154],> 10,18,IC50 (MMP-2; [2]): 3700 nM
O=C(c1ccco1)N1CCN(c2ccc(S(=O)(=O)C3(C(=O)NO)CCOCC3)cc2)CC1 [Example 537],5.2,70,IC50 (MMP-2; [2]): 55 nM
O=C(NO)C1(S(=O)(=O)c2ccc(N3CCC(OCc4ccc(OC(F)(F)F)cc4)CC3)cc2)CCOCC1 [Example 175],> 10,2.5,IC50 (MMP-2; [2]): 290 nM
CN1CCCN(C2CCN(c3ccc(S(=O)(=O)C4(C(=O)NO)CCOCC4)cc3)CC2)CC1 [Example 807],> 10,200,IC50 (MMP-2; [2]): 1400 nM
C[C@@H]1CN(C(=O)C2CCN(c3ccc(S(=O)(=O)C4(C(=O)NO)CCOCC4)cc3)CC2)C[C@H](C)N1 [Example 46],–,–,IC50 (MMP-1): > 10 µM; IC50 (MMP-2; MMP-2 IC50 (nM)): 5700 nM
O=C(NO)C1(S(=O)(=O)c2ccc(N3CCC(SCc4ccccc4Cl)CC3)cc2)CCN(C2CC2)CC1 [Example 461],> 10,–,–
CC1CC(C)CN(C(=O)C2CCN(c3ccc(S(=O)(=O)C4(C(=O)NO)CCN(C(=O)CNCC(F)(F)F)CC4)cc3)CC2)C1 (centres unmarked) [Example 310],> 10,60,–
"C[C@H]1C[C@H](C)CN(C(=O)C2CCN(c3ccc(S(=O)(=O)C4(C(=O)NO)CCNCC4)cc3)CC2)C1 (relative stereo) [Example 238, rel-4-[[4-[4-[[(3R,5R)-3,5-Dimethyl-1-piperidinyl]carbonyl]-1-piperidinyl]phenyl]sulfonyl]-N-hydroxy-4-piperidinecarboxamide, Monohydrochloride]",–,–,IC50 (MMP-1): > 10 µM; IC50 (MMP-13): 80 nM
"C[C@@H]1C[C@H](C)CN(C(=O)C2CCN(c3ccc(S(=O)(=O)C4(C(=O)NO)CCNCC4)cc3)CC2)C1 [Example 240, rel-4-[[4-[4-[[(3R,5S)-3,5-Dimethyl-1-piperidinyl]carbonyl]-1-piperidinyl]phenyl]sulfonyl]-N-hydroxy-4-piperidinecarboxamide, Monohydrochloride]",> 10,76.9,–
O=C(NO)C1(S(=O)(=O)c2ccc(N3CCC(SCc4ccc(OC(F)(F)F)cc4)CC3)cc2)CCNCC1 [Example 460],> 10,–,–
CN(C)c1ccc(C(=O)C2CCN(c3ccc(S(=O)(=O)C4(C(=O)NO)CCOCC4)cc3)CC2)cc1 [Example 802],> 10,2.3,–
O=C(NO)C1(S(=O)(=O)c2ccc(N3CCC(SCc4cccc(C(F)(F)F)c4)CC3)cc2)CCN(C2CC2)CC1 [Example 463],> 10,–,–
COc1ccc(C(=O)C2CCN(c3ccc(S(=O)(=O)C4(C(=O)NO)CCN(C(=O)c5ccco5)CC4)cc3)CC2)cc1 [Example 436],> 10,–,–
O=C(NO)C1(S(=O)(=O)c2ccc(N3CCC(SCc4ccc(OC(F)(F)F)cc4)CC3)cc2)CCN(C2CC2)CC1 [Example 454],> 10,–,–
O=C(C1CCN(c2ccc(S(=O)(=O)C3(C(=O)NO)CCOCC3)cc2)CC1)N1CCN(c2ccccn2)CC1 [Example 26],–,–,IC50 (MMP-1): > 10 µM; IC50 (MMP-2; read-out: MMP-2 IC50): 3600 nM
CC1CC(C)CN(C(=O)C2CCN(c3ccc(S(=O)(=O)C4(C(=O)NO)CCN(C(=O)CN5CCN(CCN(C)C)CC5)CC4)cc3)CC2)C1 (centres unmarked) [Example 308],> 10,40,–
O=C(NO)C1(S(=O)(=O)c2ccc(N3CCC(SCc4ccccc4)CC3)cc2)CCN(C2CC2)CC1 [Example 417],> 10,0.7,–
COc1ccc(C(=O)C2CCN(c3ccc(S(=O)(=O)C4(C(=O)NO)CCNCC4)cc3)CC2)cc1 [Example 437],> 10,–,–
Cn1ccc2cc(C(=O)C3CCN(c4ccc(S(=O)(=O)C5(C(=O)NO)CCOCC5)cc4)CC3)ccc21 [Example 867],> 10,16.5,–
CN(C)CCN1CCN(C(=O)C2CCN(c3ccc(S(=O)(=O)C4(C(=O)NO)CCOCC4)cc3)CC2)CC1 [Example 23],–,–,IC50 (MMP-1): > 10 µM; IC50 (MMP-13): 90 nM
